This assay concerns the target human h-PGDS (Homo sapiens, UniProt O60760). The assay can be described thus: Enzyme Immunoassay (EIA) method (Assay 2). The note with it: assigned. Type of assay: biochemical. From the text:
The compounds of the present invention can be tested for enzymatic inhibiting activity against PGD2 Synthase according to either one of the following assays.
Assay 2: Enzyme Immunoassay (EIA) Method
• a. Preparation of 0.1M K2HPO4/KH2PO4 buffer (pH ˜7.4) • Prepare 0.1 M KH2PO4 from 1M KH2PO4 (Sigma, Cat# P-8709) • Prepare 0.1 M K2HPO4 from powder of K2HPO4 (Fisher, BP363-500) • Mix 0.1 M K2HPO4 with 0.1 M KH2PO4 to adjust pH to 7.4. • b. Preparation of 0.5% γ-globulin • Add 0.1 g of γ-globulin (Sigma, Cat# G-5009) to 20 mL 0.1 M K2HPO4/KH2PO4 buffer (pH ˜7.4) and make 1-ml/vial aliquots and store in −80° C. • c. Preparation of 100 mM GSH • Add 307 mg of GSH (Sigma, Cat# G-6529) to 10 mL 0.1 M K2HPO4/KH2PO4 buffer (pH ˜7.4) and store at −80° C. • d. Preparation of Reaction buffer: • 198 mL of 0.1M K2HPO4/KH2PO4 buffer (pH ˜7.4) • 2 mM GSH—Prepared from 100 mM GSH • 0.4 g Glycerol • 2 mL of 0.5% γ-globulin • Add 0.4 g of glycerol and 2 mL of 0.5% γ-globulin to 198 mL of 0.1 M K2HPO4/KH2PO4 • buffer (pH7.4). • Add 0.4 mL of 100 mM GSH to 19.6 ml reaction buffer before the assay (enough for two 96-well plates). • e. Preparation of FeCl2/citric acid stopping solution: (8 mg/mL FeCl2, 0.1 M citric acid) • Add 40 mg fresh FeCl2 (IGN, Cat# 158046) to 5 ml 0.1 M citric acid (Sigma, Cat# C0759). • f. Preparation of MOX reagent: • 10% EtOH-Add 1 mL of EtOH to 9 mL of ultra pure H2O • Dissolve 0.1 g of methoxylamine (Cayman, Cat# 400036/) in 10% EtOH (10 mL). • Add 0.82 g of sodium acetate (Cayman, Cat#400037) to MOX solution and dissolve. II. Materials and Method • Dimethylsulfoxide (DMSO; Sigma; Cat# D2650) • Prostaglandin D2-MOX express EIA kit (Caymen Chemical, Catalog No. 500151)
Before the assay, cool down 10 mL of acetone in polypropylene tubes and empty 96 well plates in ice. All the procedures except compound dilution are performed on ice.
• 1. Dilute Compound in DMSO
• 2. Dilute 2 μL of each above concentration of compound to 38 μL of reaction buffer in 96-well plates and mix. IV. Enzyme and Substrate Solution Preparation • 1. Preparation of 0.39 ng/μL enzyme solution (0.35 ng/μL at final after compound addition). • Mix 4 μL of 4 mg/mL human h-PGDS with 396 μL of reaction buffer (to give enzyme concentration 40 μg/mL). Add 46.8 μL of 40 μg/mL h-PGDS to 4.753 mL of reaction buffer to give a total volume of 4.8 mL • 2. Preparation of Substrate Solution (PGH2): Add 0.375 mL of 0.1 mg/mL of PGH2 to 1.625 mL acetone. V. Enzyme Reaction: • 1. Add 60 μL of enzyme solution to compound well and positive control (without compound) in U-bottom polypropylene plate on ice. • 2. Add 60 μL of reaction buffer and 6.6 μL of 5% DMSO in reaction buffer into negative control wells in the plate. • 3. Add 6.6 μL of diluted compound in reaction buffer to the compound wells and mix. • 4. Add 6.6 μL of 5% DMSO in reaction buffer to the positive control well. • 5. Incubate the plate in ice for at least 30 min. • 6. Add 20 μL of substrate (PGH2) solution to compound, negative and positive control wells in the U-bottom 96 well plate on ice. • 7. Dry the plate in cold room for about 25-28 min. • 8. Pipette 45 μL of enzyme solution (above) into 96-wells with dried PGH2 and mix 3 times. Incubate on the ice for 1 min. • 9. Add 45 μL of FeCl2 solution into each wells and mix. • 10. Add 90 μL of MOX solution and mix. • 11. Incubate for 30 min at 60° C. • 12. Dilute the samples 2500× with EIA buffer. VI. EIA assay • Perform the assay according to the procedure in EIA kit provided by Cayman. […]
Sequence of human h-PGDS (O60760 whole entry): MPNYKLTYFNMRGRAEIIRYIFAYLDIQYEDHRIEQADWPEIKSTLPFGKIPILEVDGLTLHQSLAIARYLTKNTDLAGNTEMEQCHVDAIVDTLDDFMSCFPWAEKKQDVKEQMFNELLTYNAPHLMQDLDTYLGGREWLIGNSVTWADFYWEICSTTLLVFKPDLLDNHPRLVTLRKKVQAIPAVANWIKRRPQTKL
The IC50 is the concentration that inhibits the measured activity by half. A high value points to weaker potency. Compound `O=C(NCc1ccccc1)c1cnc(-c2ccccc2)nc1` [Example 1, 2-Phenyl-pyrimidine-5-carboxylic acid benzylamide] returned an IC50 of 10 nM. In other words, the double-digit nanomolar range.

`NS(=O)(=O)c1ccc(NC(=O)c2cnc(-c3ccccc3)nc2)cc1` [Example 30, 2-Phenyl-pyrimidine-5-carboxylic acid (4-sulfamoyl-phenyl)-amide] yielded an IC50 of 5 nM.

As to `CN1CCC(NC(=O)c2cnc(-c3ccccc3)nc2)CC1` [Example 38, 2-Phenyl-pyrimidine-5-carboxylic acid (1-methyl-piperidin-4-yl)-amide], the IC50 came to 96 nM.

`CNS(=O)(=O)c1cccc(CNC(=O)c2cnc(-c3cc(F)cc(F)c3)nc2)c1` [Example 40, 2-(3,5-Difluoro-phenyl)-pyrimidine-5-carboxylic acid 3-methylsulfamoyl-benzylamide] had a concentration for half-maximal inhibition (IC50) of 49 nM. This IC50 lies about 2-fold lower than the previous one.

Compound `CCNS(=O)(=O)c1cccc(CNC(=O)c2cnc(-c3cccc(F)c3)nc2)c1` [Example 45, 2-(3-Fluoro-phenyl)-pyrimidine-5-carboxylic acid 3-ethylsulfamoyl-benzylamide] displayed an IC50 of 58 nM.

Regarding `O=C(NCc1cccc(S(=O)(=O)NC2CC2)c1)c1cnc(-c2cccc(F)c2)nc1` [Example 48, 2-(3-Fluoro-phenyl)-pyrimidine-5-carboxylic acid 3-cyclopropylsulfamoyl-benzylamide], half-maximal inhibition (IC50) required 132 nM. This IC50 lies about 2.3-fold higher than the previous one.

`O=C(NCc1cccc(S(=O)(=O)NCCCO)c1)c1cnc(-c2cccc(F)c2)nc1` [Example 49, 2-(3-Fluoro-phenyl)-pyrimidine-5-carboxylic acid 3-(3-hydroxy-propylsulfamoyl)-benzylamide]: inhibition was half-maximal at 22 nM (IC50). Against the preceding compound, the IC50 is about 6-fold lower.

Take `COCCCNS(=O)(=O)c1cccc(CNC(=O)c2cnc(-c3cccc(F)c3)nc2)c1` [Example 51, 2-(3-Fluoro-phenyl)-pyrimidine-5-carboxylic acid 3-(3-methoxy-propylsulfamoyl)-benzylamide]: the midpoint of inhibition, the IC50, lay at 37 nM.

In turn, `CC(C)(CO)NS(=O)(=O)c1cccc(CNC(=O)c2cnc(-c3cccc(F)c3)nc2)c1` [Example 54, 2-(3-Fluoro-phenyl)-pyrimidine-5-carboxylic acid 3-(2-hydroxy-1,1-dimethyl-ethylsulfamoyl)-benzylamide] returned an IC50 of 60 nM.

Consider `NS(=O)(=O)c1cccc(CNC(=O)c2cnc(-c3cccc(F)c3)nc2)c1` [Example 55, 2-(3-Fluoro-phenyl)-pyrimidine-5-carboxylic acid 3-sulfamoyl-benzylamide], for which half-maximal inhibition (IC50) required 31 nM.

In turn, `O=C(NCc1cccc(S(=O)(=O)NCCN2CCOCC2)c1)c1cnc(-c2cccc(F)c2)nc1` [Example 56] gave an IC50 of 37 nM.

In turn, `CN(C)CCNS(=O)(=O)c1cccc(CNC(=O)c2cnc(-c3cccc(F)c3)nc2)c1` [Example 63, 2-(3-Fluoro-phenyl)-pyrimidine-5-carboxylic acid 3-(2-dimethylamino-ethylsulfamoyl)-benzylamide] came in with an IC50 of 45 nM.

Take `CN(C)CC(C)(C)CNS(=O)(=O)c1cccc(CNC(=O)c2cnc(-c3cccc(F)c3)nc2)c1` [Example 65, 2-(3-Fluoro-phenyl)-pyrimidine-5-carboxylic acid 3-(3-dimethylamino-2,2-dimethyl-propylsulfamoyl)-benzylamide]: inhibition was half-maximal at 35 nM (IC50).

Compound `Cc1nc(-c2cccc(F)c2)ncc1C(=O)NCc1cccc(CNS(C)(=O)=O)c1` [Example 68, 2-(3-Fluoro-phenyl)-4-methyl-pyrimidine-5-carboxylic acid 3-(methanesulfonylamino-methyl)-benzylamide] showed an IC50 of 48.5 nM.

For the compound `Cc1nc(-c2cccc(F)c2)ncc1C(=O)NCc1cccc(CS(=O)(=O)NC(C)C)c1` [Example 71, 2-(3-Fluoro-phenyl)-4-methyl-pyrimidine-5-carboxylic acid 3-(isopropylsulfamoyl-methyl)-benzylamide], half-maximal inhibition (IC50) was put at 34 nM.

Compound `CNS(=O)(=O)c1cccc(CNC(=O)c2cnc(-c3cccc(F)c3)nc2C)c1` [Example 85, 2-(3-Fluoro-phenyl)-4-methyl-pyrimidine-5-carboxylic acid 3-methylsulfamoyl-benzylamide] had a half-maximal inhibitory concentration (IC50) of 106 nM.

`CNS(=O)(=O)c1cccc(CNC(=O)c2cnc(-c3cccc(F)c3)nc2)c1` [Example 97, 2-(3-Fluoro-phenyl)-pyrimidine-5-carboxylic acid 3-methylsulfamoyl-benzylamide] registered an IC50 of 9.5 nM.

In turn, `NS(=O)(=O)CCNC(=O)c1cnc(-c2ccccc2)nc1` [Example 108, 2-Pheny-pyrimidine-5-carboxylic acid (2-sulfamoyl-ethyl)-amide] came in with an IC50 of 55 nM.

Compound `CN(C)S(=O)(=O)CCNC(=O)c1cnc(-c2ccccc2)nc1` [Example 109, 2-Pheny-pyrimidine-5-carboxylic acid (2-dimethylsulfamoyl-ethyl)-amide] had a half-maximal inhibitory concentration (IC50) of 82 nM.

Compound `O=C(Nc1nc(-c2ccccc2)ns1)c1cnc(-c2ccccc2)nc1` [Example 110, 2-Phenyl-pyrimidine-5-carboxylic acid (3-phenyl-[1,2,4]thiadiazol-5-yl)-amide] registered an IC50 of 30 nM.

For the compound `NS(=O)(=O)c1ccc(CNC(=O)c2cnc(-n3cccn3)nc2)cc1` [Example 117, 2-Pyrazol-1-yl-pyrimidine-5-carboxylic acid 4-sulfamoyl-benzylamide], the midpoint of inhibition, the IC50, lay at 266 nM.

For `Cc1nc(-c2ncc(C(=O)NC3CCOCC3)cn2)cs1` [Example 118, 2-(2-Methyl-thiazol-4-yl)-pyrimidine-5-carboxylic acid (tetrahydro-pyran-4-yl)-amide], the concentration for half-maximal inhibition (IC50) is 82 nM.
